Assays:
Format in all cases: cell-based, human
PBM cells = assay: Cell viability resazurin assay, PBM cells; details: for viability of PBM cells relative to control: ± SD
Description: Peripheral blood mononuclear (PBM) cells were isolated from a leukocyte-buffy coat collected from the blood of healthy, non-smoking donors at the Blood Bank in Lodz, Poland. The study protocol received approval from the Committee for Research on Human Subjects of the University of Lodz (17/KBBN-UŁ/III/2019). The initial step of isolation process involved mixing buffy coats with PBS in a 1:1 ratio. Subsequently, the mixture was centrifuged using a density gradient of Lymphosep (Cytogen, Zgierz, Poland) at 2200 RPM for 20 min, employing the lowest values for acceleration and deceleration. PBM cells were collected and washed three times by centrifugation with 1 × PBS. Following isolation, the cells were suspended in RPMI 1640 medium.
(§1) Firstly, resazurin salt powder was dissolved in sterile 1 × PBS. Cells were then seeded on the 96-well plates in the count of 1 × 10^4 in the case of HL-60 cells and of 5 × 10^4 for PBM cells and of 5 × 10^3 for A549 cells per well. A549 cells were seeded 24 h prior to treatment with the complexes to allow cell adherence to 96-well plate. Iron(II) complexes were added to wells to obtain final concentrations of 0.5, 1, 2.5, 5, 10, 25, 50, 100 and 250 μM. Subsequently, plates were incubated at 37 °C in 5% CO2 for 2 h and 24 h. After that 10 μl of resazurin salt was added to each well and plates again were incubated in 37 °C in 5% CO2 for 2 h. Finally, fluorescence was measured with microplate reader Synergy HT (Bio-Tek Instruments, USA) using an excitation wavelength of 530/25 and an emission wavelength of 590/35 nm. The effects of iron(II) complexes were calculated as the percentage of control fluorescence. IC50 (half maximal inhibitory concentration) values were calculated using a website algorithm (https://www.aatbio.com/tools/ic50-calculator). All assays were performed in octuplicate.

HL-60 cells [1] = assay: Cell viability resazurin assay, HL-60 cells; details: for viability of HL-60 cells relative to control: ± SD
Description: (§2) The A549 (human non-small cell lung cancer) cell line was obtained from the American Type Culture Collection (ATCC) and cultured in Dulbecco's Modified Eagle Medium (DMEM) with 10% fetal bovine serum (FBS), 2 mM L-Glutamine, 25 mM HEPES and penicillin/streptomycin solution (100 U/ml and 100 µg/ml, respectively). The HL-60 (human promyelocytic leukemia) cell line was also obtained from the American Type Culture Collection (ATCC) and cultured in Iscove’s Modified Dulbecco's Medium (IMDM) with 15% fetal bovine serum (FBS), 2 mM L-Glutamine, 25 mM HEPES and penicillin/streptomycin solution (100 U/ml and 100 µg/ml, respectively). Both cell lines were cultured in flasks at 37 °C in 5% CO2 and sub-cultured every 2–3 days to maintain exponential growth.
as §1

A549 cells = assay: Cell viability resazurin assay, A549 cells; details: for viability of A549 cells relative to control: ± SD
Description: as §2, §1

HL-60 cells [2] = assay: Alkaline comet assay, HL-60 cells
Description: Selected iron(II) complexes were added to the suspension of the cells to give final concentrations of 1, 5, 10, 25 and 50 μM. HL-60 and A549 cells were incubated with the complexes for 2 h at 37 °C. The comet assay was performed under alkaline conditions according to the procedure of Tokarz et al.[45]. […] Next, the cells were lysed for 1 h at 4 °C in a buffer containing 2.5 M NaCl, 0.1 M EDTA, 10 mM Tris, 1% Triton X-100, pH 10. Following the lysis, the slides were placed in an electrophoresis unit. DNA was allowed to unwind for 20 min in the solution containing 300 mM NaOH and 1 mM EDTA, pH > 13. […] After separation, the slides were washed in water, drained, stained with 2 μg/ml DAPI and covered with cover slips. As a prevention from additional DNA damage, the procedure described above was conducted under limited light or in the dark. Each experiment included the positive control—cells incubated with H2O2 at 20 µM for 15 min on ice (data not shown).
The comets obtained after single cell gel electrophoresis were analysed in the following manner. […] Hundred images of singular comets were randomly selected from each sample and the mean value of DNA in comet tail was taken as an index of DNA damage (expressed in percent).

O=C1C=CC(=O)[N-]1.[C-]#[O+].[C-]#[O+].[Fe+2].c1cc[cH-]c1 [compound 1, CpFe(CO)2(η^1-N-maleimidato)]
viability of PBM cells relative to control (PBM cells; 2 h incubation, 0.5 µM): 101.07 ± 0.78% | viability of PBM cells relative to control (PBM cells; 2 h incubation, 1 µM): 100.74 ± 0.73% | viability of PBM cells relative to control (PBM cells; 2 h incubation, 2.5 µM): 99.56 ± 1.96% | viability of PBM cells relative to control (PBM cells; 2 h incubation, 5 µM): 99.26 ± 2.82% | viability of PBM cells relative to control (PBM cells; 2 h incubation, 10 µM): 101.49 ± 4.25% | viability of PBM cells relative to control (PBM cells; 2 h incubation, 25 µM): 99.86 ± 1.87% | viability of PBM cells relative to control (PBM cells; 2 h incubation, 50 µM): 100.66 ± 0.97% | viability of PBM cells relative to control (PBM cells; 2 h incubation, 100 µM): 100.59 ± 1.01% | viability of PBM cells relative to control (PBM cells; 2 h incubation, 250 µM): 93.17 ± 2.92% | IC50 (PBM cells; 24 h incubation): 106 µM | viability of PBM cells relative to control (PBM cells; 24 h incubation, 0.5 µM): 106.05 ± 1.67% | viability of PBM cells relative to control (PBM cells; 24 h incubation, 1 µM): 103.84 ± 0.59% | viability of PBM cells relative to control (PBM cells; 24 h incubation, 2.5 µM): 99.3 ± 1.2% | viability of PBM cells relative to control (PBM cells; 24 h incubation, 5 µM): 91.84 ± 1.72% | viability of PBM cells relative to control (PBM cells; 24 h incubation, 10 µM): 85.39 ± 1.19% | viability of PBM cells relative to control (PBM cells; 24 h incubation, 25 µM): 89.23 ± 0.44% | viability of PBM cells relative to control (PBM cells; 24 h incubation, 50 µM): 78.87 ± 1.76% | viability of PBM cells relative to control (PBM cells; 24 h incubation, 100 µM): 50.82 ± 1.08% | viability of PBM cells relative to control (PBM cells; 24 h incubation, 250 µM): 21.96 ± 0.71% | viability of HL-60 cells relative to control (HL-60 cells [1]; 2 h incubation, 0.5 µM): 101.68 ± 0.96% | viability of HL-60 cells relative to control (HL-60 cells [1]; 2 h incubation, 1 µM): 101.06 ± 1.48% | viability of HL-60 cells relative to control (HL-60 cells [1]; 2 h incubation, 2.5 µM): 100.83 ± 2.04% | viability of HL-60 cells relative to control (HL-60 cells [1]; 2 h incubation, 5 µM): 97.79 ± 1.25% | viability of HL-60 cells relative to control (HL-60 cells [1]; 2 h incubation, 10 µM): 89.74 ± 2.7% | viability of HL-60 cells relative to control (HL-60 cells [1]; 2 h incubation, 25 µM): 83.96 ± 1.62% | viability of HL-60 cells relative to control (HL-60 cells [1]; 2 h incubation, 50 µM): 73.55 ± 0.27% | viability of HL-60 cells relative to control (HL-60 cells [1]; 2 h incubation, 100 µM): 24.73 ± 1.89% | viability of HL-60 cells relative to control (HL-60 cells [1]; 2 h incubation, 250 µM): 15.71 ± 0.21% | IC50 (HL-60 cells [1]; 24 h incubation): 7.69 µM | viability of HL-60 cells relative to control (HL-60 cells [1]; 24 h incubation, 0.5 µM): 106.53 ± 5.45% | viability of HL-60 cells relative to control (HL-60 cells [1]; 24 h incubation, 1 µM): 107.4 ± 3.25% | viability of HL-60 cells relative to control (HL-60 cells [1]; 24 h incubation, 2.5 µM): 109.43 ± 1.41% | viability of HL-60 cells relative to control (HL-60 cells [1]; 24 h incubation, 5 µM): 89.27 ± 2.42% | viability of HL-60 cells relative to control (HL-60 cells [1]; 24 h incubation, 10 µM): 42.91 ± 0.62% | viability of HL-60 cells relative to control (HL-60 cells [1]; 24 h incubation, 25 µM): 37.45 ± 1.48% | viability of HL-60 cells relative to control (HL-60 cells [1]; 24 h incubation, 50 µM): 30.99 ± 0.27% | viability of HL-60 cells relative to control (HL-60 cells [1]; 24 h incubation, 100 µM): 14.21 ± 0.37% | viability of HL-60 cells relative to control (HL-60 cells [1]; 24 h incubation, 250 µM): 3.83 ± 0.21% | viability of A549 cells relative to control (A549 cells; 2 h incubation, 0.5 µM): 93.79 ± 10.65% | viability of A549 cells relative to control (A549 cells; 2 h incubation, 1 µM): 93.56 ± 10.37% | viability of A549 cells relative to control (A549 cells; 2 h incubation, 2.5 µM): 78.45 ± 9.98% | viability of A549 cells relative to control (A549 cells; 2 h incubation, 5 µM): 67.97±12.88% | viability of A549 cells relative to control (A549 cells; 2 h incubation, 10 µM): 63.34 ± 13% | viability of A549 cells relative to control (A549 cells; 2 h incubation, 25 µM): 51.29 ± 9.65% | viability of A549 cells relative to control (A549 cells; 2 h incubation, 50 µM): 41.64 ± 8.89% | viability of A549 cells relative to control (A549 cells; 2 h incubation, 100 µM): 36.49 ± 6.19% | viability of A549 cells relative to control (A549 cells; 2 h incubation, 250 µM): 36.35 ± 4.86% | IC50 (A549 cells; 24 h incubation): 54.2 µM | viability of A549 cells relative to control (A549 cells; 24 h incubation, 0.5 µM): 75.31 ± 7.67% | viability of A549 cells relative to control (A549 cells; 24 h incubation, 1 µM): 70.02 ± 8.73% | viability of A549 cells relative to control (A549 cells; 24 h incubation, 2.5 µM): 73.33 ± 7.65% | viability of A549 cells relative to control (A549 cells; 24 h incubation, 5 µM): 104.37 ± 10.70% | viability of A549 cells relative to control (A549 cells; 24 h incubation, 10 µM): 108.72 ± 15.90% | viability of A549 cells relative to control (A549 cells; 24 h incubation, 25 µM): 82.97 ± 8.04% | viability of A549 cells relative to control (A549 cells; 24 h incubation, 50 µM): 50.31 ± 12.68% | viability of A549 cells relative to control (A549 cells; 24 h incubation, 100 µM): 9.43 ± 1.69% | viability of A549 cells relative to control (A549 cells; 24 h incubation, 250 µM): 2.35 ± 0.49% | DNA damage in HL-60 cells (alkaline comet assay), in words (HL-60 cells [2]; 2 h incubation, 1-50 μM tested): induced DNA damage | DNA in tail (alkaline comet assay) (HL-60 cells [2]; HL-60 cells, 2 h, 50 μM): 25%

— publication PMC10920834, “Synthesis, anticancer activity, and molecular docking of half-sandwich iron(II) cyclopentadienyl complexes with maleimide and phosphine or phosphite ligands” (Scientific Reports, 2024)
